The source of these data is ChEMBL document CHEMBL1142408, “Synthesis and biological evaluation of 10,11-dihydrodictyostatin, a potent analogue of the marine anticancer agent dictyostatin” (J Nat Prod, 2008).

Calls of active or inactive are those of the source. No cut-off for these calls is given here.

Format in all cases: functional, cell-based
Assay [1] concerns PANC-1. Kind of assay: Microtubule polymerization in human PANC1 cells.
The subject of assay [2] is PANC-1. Kind of assay: Cytotoxicity against human PANC1 cells after 72 hrs by MTT assay. The settings on record: PANC-1, 72 h. In general terms: Tetrazolium dyes change colour on reduction, which living cells bring about.
Assay [3] deals with ASPC1. Nature of the assay: Cytotoxicity against human AsPC1 cells after 72 hrs by MTT assay. The note with it: ASPC1, 72 h.
The subject of assay [4] is DLD-1. Nature of the assay: Cytotoxicity against human DLD1 cells after 72 hrs by MTT assay. The settings on record: DLD-1, 72 h.
Assay [5] deals with PANC-1. Kind of assay: Cell cycle arrest in human PANC1 cells assessed as accumulation at G2/M phase after 24 hrs.
A short description of assay [6]: Cytotoxicity against taxol-resistant human NCI/ADR cells after 72 hrs by MTT assay. The settings on record: NCI/ADR-RES.
In assay [7] the test system is P388. Nature of the assay: Cytotoxicity against mouse P388 cells by MTT assay.

By IC50 is commonly meant the point on the concentration scale where inhibition reaches its midpoint. A lower IC50 goes with greater potency in that assay. `C=C/C=C\[C@H](C)[C@@H]1OC(=O)/C=C\C=C\[C@@H](C)[C@@H](O)C[C@H](O)CC[C@H](C)[C@H](O)[C@@H](C)C[C@@H](C)CC[C@@H](O)[C@@H]1C`: the outcome in assay [1] and in assay [5] was Active. Besides, the IC50 in assay [2] stood at 0.018 µM; in assay [3] it was 0.043 µM; in assay [4], 0.01 µM; in assay [6], 0.3 µM.

Take `C=C/C=C\[C@H](C)[C@@H]1OC(=O)/C=C\C=C\[C@@H](C)[C@@H](O)C[C@H](O)/C=C\[C@H](C)[C@H](O)[C@@H](C)C[C@@H](C)CC[C@@H](O)[C@@H]1C` [DICTYOSTATIN]: the IC50 in assay [2] turned out to be 0.0034 µM; in assay [3], 0.009 µM; in assay [4] it was 0.0008 µM; in assay [6], 0.0098 µM.

For the compound `C=C/C=C\[C@H](C)[C@H](OC(N)=O)[C@@H](C)[C@H](O)[C@@H](C)C/C(C)=C\[C@H](C)[C@@H](O)[C@@H](C)/C=C\[C@@H](O)C[C@@H]1OC(=O)[C@H](C)[C@@H](O)[C@H]1C` [DISERMOLIDE], the IC50 in assay [2] was determined as 0.059 µM; in assay [3], 0.098 µM; in assay [4] it was 0.029 µM; in assay [7], 0.035 µM; in assay [6], 0.16 µM.

With `CC(=O)O[C@H]1C(=O)[C@@]2(C)[C@H]([C@H](OC(=O)c3ccccc3)[C@]3(O)C[C@H](OC(=O)[C@H](O)[C@@H](NC(=O)c4ccccc4)c4ccccc4)C(C)=C1C3(C)C)[C@]1(OC(C)=O)CO[C@@H]1C[C@@H]2O` [PACLITAXEL], the 50% inhibitory concentration (IC50) in assay [2] amounted to 0.007 µM; in assay [3], 0.02 µM; in assay [4], 0.011 µM; in assay [6] it was 1 µM.
